Reference: patent US20130123355A1, “Fatty acids and metal ions compositions and uses thereof” (priority 2011, published 2013)

Legend:
rats [1] = test: T-maze test (forced alternation or left-right discrimination task); assay type: in vivo; settings: diet
Method: Mg-DHA composition is provided as supplement in standard rat feed. On an average, rats consume about 50 mg/Kg/day of elemental Mg, on a feeding schedule so as to maintain 85% of its free-feeding weight. In the control group, rats are fed either DHA or magnesium citrate (Mg Citrate) supplemented diet on schedule similar to test group. After habituation to the apparatus and pre-training, each rat undergoes 4 trials of standard T-maze test (Shoji et al, J. Vis. Exp. (60), e3300, DOI: 10.3791/3300 (2012)) on day 1 or day 21 of Mg-DHA, Mg Citrate, or DHA feeding. Rats are subject to either forced alternation task or left-right discrimination task. Behaviors in the T-maze apparatus is recorded and statistically analyzed by two way repeated measures analysis of variance. […] In another set of experiments, rats fed with DHA, Mg Citrate, or Mg-DHA for 21 days are subject to novel-object-location (NOL) tests.
Mg-DHA composition is provided as supplement in standard rat feed. On an average, rats consume about 50 mg/Kg/day of elemental Mg, on a feeding schedule so as to maintain 85% of its free-feeding weight. In the control group, rats are fed DHA-LysoPC or Mg Citrate supplemented diet on schedule similar to test group. After habituation to the apparatus and pre-training, each rat undergoes 4 trials of standard T-maze test (Shoji et al, J. Vis. Exp. (60), e3300, DOI: 10.3791/3300 (2012)) on day 1 or day 21 of Mg-DHA-LysoPC, Mg Citrate or DHA-LysoPC feeding. Rats are subjected to either forced alternation task or left-right discrimination task. Behaviors in the T-maze apparatus is recorded and statistically analyzed by two way repeated measures analysis of variance. […] In another set of experiments, rats fed with Mg Citrate, DHA-LysoPC, or Mg-DHA-LysoPC for 21 days are subjected to novel-object-location (NOL) tests.
Mg-EPA composition is provided as supplement in standard rat feed. On an average, rats consume about 50 mg/Kg/day of elemental Mg, on a feeding schedule so as to maintain 85% of its free-feeding weight. In the control group, rats are fed EPA or Mg Citrate supplemented diet on scheduled similar to test group. After habituation to the apparatus and pre-training, each rat undergoes 4 trials of standard T-maze test (Shoji et al, J. Vis. Exp. (60), e3300, DOI: 10.3791/3300 (2012)) on day 1 or day 21 of Mg-EPA, Mg Citrate, or EPA feeding. Rats are subjected to either forced alternation task or left-right discrimination task. Behaviors in the T-maze apparatus is recorded and statistically analyzed by two way repeated measures analysis of variance. […]
Zn-DHA composition is provided as supplement in standard rat feed. […] Behaviors in the T-maze apparatus is recorded and statistically analyzed by two way repeated measures analysis of variance. […]

rats [2] = test: tail flick test; assay type: in vivo; settings: diet
Method: On Zn-EPA or zinc gluconate supplemented diet, rats consume about 1 mg/kg body weight/day of elemental zinc, on a feeding schedule so as to maintain 85% of its free-feeding weight.

[3] = Zn levels in cerebrospinal fluid of rats fed Zn compositions; assay type: in vivo, Sprague-Dawley rats; settings: oral gavage, about 1 mg elemental zinc per kg per day for 3 weeks, compared with Zinc gluconate
Method: Sprague-Dawley rats are fed various […] compositions by oral gavage so as to provide about 1 mg elemental zinc per kg per day for 3 weeks. The zinc compositions include Zn-DHA, Zn-DHA-LysoPC and Zn-EPA. Control rats were administered equivalent molar amount of zinc gluconate. Cerebrospinal fluid is collected at the end of the treatment, and zinc is measured by atomic absorption spectroscopy.

[4] = about 50 mg/Kg/day elemental Mg, day 1 or day 21, compared with the fatty acid alone or Mg Citrate
[5] = about 50 mg/Kg/day elemental Mg, days 0, 7, 14, 21, compared with Mg Citrate or the fatty acid alone
[6] = about 1 mg/kg body weight/day elemental Zn, day 1 or day 21, compared with the fatty acid alone or zinc gluconate
[7] = about 1 mg/kg body weight/day elemental zinc, days 0, 7, 14, 21, compared with zinc gluconate or the fatty acid alone

Row | SMILES | working and reference memory (rats [1]; [4]) | latency of tail flick reflex (rats [2]; [5]) | CSF levels of Zn [3] | working and reference memory (rats [1]; [6]) | latency of tail flick reflex (rats [2]; [7])
1 | CC/C=C\C/C=C\C/C=C\C/C=C\C/C=C\C/C=C\CCC(=O)[O-].CC/C=C\C/C=C\C/C=C\C/C=C\C/C=C\C/C=C\CCC(=O)[O-].[Mg+2] [Mg-DHA] | statistically significant increase | Statistically significant increased latency |  |  | 
2 | CC/C=C\C/C=C\C/C=C\C/C=C\C/C=C\CCCC(=O)[O-].CC/C=C\C/C=C\C/C=C\C/C=C\C/C=C\CCCC(=O)[O-].[Mg+2] [Mg-EPA] | statistically significant increase | Statistically significant increased latency |  |  | 
3 | CC/C=C\C/C=C\C/C=C\C/C=C\C/C=C\C/C=C\CCC(=O)[O-].CC/C=C\C/C=C\C/C=C\C/C=C\C/C=C\C/C=C\CCC(=O)[O-].[Zn+2] [Zn-DHA] |  |  | higher | statistically significant increase | Statistically significant increased latency
4 | CC/C=C\C/C=C\C/C=C\C/C=C\C/C=C\CCCC(=O)[O-].CC/C=C\C/C=C\C/C=C\C/C=C\C/C=C\CCCC(=O)[O-].[Zn+2] [Zn-EPA] |  |  | higher | statistically significant increase | Statistically significant increased latency
